PMC7531004, “Discovery of gramicidin A analogues with altered activities by multidimensional screening of a one-bead-one-compound library” (Nature Communications, 2020)
Where a SMILES comes first, the peptide text is derived from it. [ ]: non-standard residue; d: D form. The star is where a group is joined. NHCH2CH2OH = OCCN*; For = O=C*

Columns and labels:
[1] = H+/Na+ transport assay of bead-derived peptides (one-point); type: biochemical; set-up: key: relative activity; mean of two control wells = 1.00; conditions: bead-derived peptide solution, EYPC/EYPG LUVs;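 further: relative to parent gramicidin A activity set to 1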
Summary of the method: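 Miniaturized 96-well format. LUVs with entrapped pyranine (1.0 mM) were exposed to peptide for 30 min at RT. Intensities were expressed relative to full lysis by Triton X-100 and no treatment, with control-well mean = 1.00.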

[2] = tested on: P388 mouse leukemia cells; conditions: 92 h
Summary of the method: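 First, library peptide stocks are diluted 250-fold in RPMI1640 with 10% heat-inactivated FBS. Next, they are mixed with P388 cells to give 1 × 10^4 cells/mL and incubated 92 h at 37 °C, 5% CO2. Finally, viability (%) is scored by WST-1 absorbance at 415 nm.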

[3] = tested on: Streptococcus pyogenes SSI-9; assay: Antibacterial activity assay of bead-derived peptides (three concentrations); type: cell-based; set-up: key: +++: inhibition by the 640-fold diluted peptide solution; ++: inhibition by the 160-fold diluted solution; +: inhibition by the 40-fold diluted solution; -: no inhibition; conditions: S. pyogenes, bead-derived peptide solution, three concentrations
Summary of the method: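 Bead-derived library peptide stocks in DMSO were tested undiluted and after 4- and 16-fold DMSO dilution against S. pyogenes SSI-9 (2 × 10^5 CFU/well) in cation-adjusted Mueller Hinton Broth with 5% laked horse blood. After 18 h at 37 °C, wells were scored for precipitation of grown cells.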

| Structure (SMILES) | H+/Na+ transport activity normalized against the value of 1 (1.00) [1] | cell viability/% [2] [%] | antibacterial activity [3] |
| --- | --- | --- | --- |
| CC(C)C[C@@H](NC(=O)[C@H](Cc1c[nH]c2ccccc12)NC(=O)[C@@H](CC(C)C)NC(=O)[C@@H](NC(=O)[C@H](NC(=O)[C@H](C)NC(=O)[C@H](NC(=O)[C@H](C)NC(=O)CNC(=O)[C@@H](NC=O)C(C)C)[C@H](C)O)C(C)C)C(C)C)C(=O)N[C@@H](Cc1c[nH]c2ccccc12)C(=O)N[C@H](CC(C)C)C(=O)N[C@@H](Cc1c[nH]c2ccccc12)C(=O)N[C@@H](C(=O)N[C@@H](Cc1c[nH]c2ccccc12)C(=O)NCCO)C(C)C [compound 94] (For-VGA[dT]A[dV]V[dL]W[dL]W[dL]W[dV]W-NHCH2CH2OH) | 1.16 | 100.0 | - |
| CNC(=O)C[C@@H](NC(=O)[C@H](Cc1c[nH]c2ccccc12)NC(=O)[C@@H](CC(C)C)NC(=O)[C@H](Cc1c[nH]c2ccccc12)NC(=O)[C@@H](CC(C)C)NC(=O)[C@H](Cc1c[nH]c2ccccc12)NC(=O)[C@H](NC(=O)[C@@H](NC(=O)[C@@H](CC(C)C)NC(=O)[C@H](C)NC(=O)[C@@H](CC(C)C)NC(=O)[C@H](C)NC(=O)CNC(=O)[C@@H](NC=O)C(C)C)C(C)C)C(C)C)C(=O)N[C@@H](Cc1c[nH]c2ccccc12)C(=O)NCCO [compound 6829] (For-VGA[dL]A[dL]V[dV]W[dL]W[dL]W[dD](NHMe)W-NHCH2CH2OH) | 1.05 | 100.0 | - |
| CNC(=O)C[C@@H](NC(=O)[C@@H](NC(=O)[C@H](NC(=O)[C@H](C)NC(=O)[C@@H](CC(C)C)NC(=O)[C@H](C)NC(=O)CNC(=O)[C@@H](NC=O)C(C)C)C(C)C)C(C)C)C(=O)N[C@@H](Cc1c[nH]c2ccccc12)C(=O)N[C@H](CC(C)C)C(=O)N[C@@H](Cc1c[nH]c2ccccc12)C(=O)N[C@@H](C(=O)N[C@@H](Cc1c[nH]c2ccccc12)C(=O)N[C@H](CC(C)C)C(=O)N[C@@H](Cc1c[nH]c2ccccc12)C(=O)NCCO)C(C)C [compound 10669] (For-VGA[dL]A[dV]V[dD](NHMe)W[dL]W[dV]W[dL]W-NHCH2CH2OH) | 1.11 | 55.2 | - |
| CNC(=O)C[C@@H](NC(=O)[C@H](Cc1c[nH]c2ccccc12)NC(=O)[C@@H](CC(C)C)NC(=O)[C@H](Cc1c[nH]c2ccccc12)NC(=O)[C@H](NC(=O)[C@H](Cc1c[nH]c2ccccc12)NC(=O)[C@@H](CC(C)C)NC(=O)[C@@H](NC(=O)[C@H](NC(=O)[C@H](C)NC(=O)[C@@H](CC(C)C)NC(=O)[C@H](C)NC(=O)CNC(=O)[C@@H](NC=O)C(C)C)C(C)C)C(C)C)C(C)C)C(=O)N[C@@H](Cc1c[nH]c2ccccc12)C(=O)NCCO [compound 10043] (For-VGA[dL]A[dV]V[dL]W[dV]W[dL]W[dD](NHMe)W-NHCH2CH2OH) | 1.09 | 56.6 | - |
| CNC(=O)C[C@@H](NC(=O)[C@@H](NC(=O)[C@@H](CC(C)C)NC(=O)[C@H](C)NC(=O)[C@@H](CC(C)C)NC(=O)[C@H](C)NC(=O)CNC(=O)[C@@H](NC=O)C(C)C)C(C)C)C(=O)N[C@@H](Cc1c[nH]c2ccccc12)C(=O)N[C@@H](C(=O)N[C@@H](Cc1c[nH]c2ccccc12)C(=O)N[C@@H](C(=O)N[C@@H](Cc1c[nH]c2ccccc12)C(=O)N[C@H](CC(C)C)C(=O)N[C@@H](Cc1c[nH]c2ccccc12)C(=O)NCCO)C(C)C)C(C)C [compound 12307] (For-VGA[dL]A[dL]V[dD](NHMe)W[dV]W[dV]W[dL]W-NHCH2CH2OH) | 1.32 | 100.0 | - |
